According to ChEMBL document CHEMBL1201862, “PubChem BioAssay data set” (2004):
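Five concentrations, 48 hours, 96-well plates. GI50 = concentration required for 50% inhibition of growth.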 The source made the active and inactive calls. Rule as the data show it: active = GI50 up to about 1.1 µM and inactive = higher.

Assays:
Experiment in all cases: NCI tumour cell line growth inhibition, 48 h
Malme-3M = tested on: Malme-3M
SK-MEL-5 = tested on: SK-MEL-5
SNB-75 = tested on: SNB-75
ACHN = tested on: ACHN
SF-295 = tested on: SF-295
NCI/ADR-RES = tested on: NCI/ADR-RES
A498 = tested on: A498
SF-268 = tested on: SF-268
SN12C = tested on: SN12C
SNB-19 = tested on: SNB-19
MDA-N = tested on: MDA-N
OVCAR-8 = tested on: OVCAR-8
OVCAR-5 = tested on: OVCAR-5
COLO 205 = tested on: COLO 205
HOP-92 = tested on: HOP-92
Hs-578T = tested on: Hs-578T
SK-OV-3 = tested on: SK-OV-3
HOP-62 = tested on: HOP-62
UACC-62 = tested on: UACC-62
DU-145 = tested on: DU-145
SW-620 = tested on: SW-620
CAKI-1 = tested on: CAKI-1
OVCAR-3 = tested on: OVCAR-3
LOX IMVI = tested on: LOX IMVI
EKVX = tested on: EKVX
HCT-116 = tested on: HCT-116
MDA-MB-435 = tested on: MDA-MB-435
M14 = tested on: M14
NCI-H23 = tested on: NCI-H23
NCI-H460 = tested on: NCI-H460
RXF 393 = tested on: RXF 393
A549 = tested on: A549
MCF7 = tested on: MCF7
786-0 = tested on: 786-0
TK-10 = tested on: TK-10
HCT-15 = tested on: HCT-15
HT-29 = tested on: HT-29
U-251 = tested on: U-251
PC-3 = tested on: PC-3
UACC-257 = tested on: UACC-257
NCI-H522 = tested on: NCI-H522
CCRF-CEM = tested on: CCRF-CEM
IGROV-1 = tested on: IGROV-1
K562 = tested on: K562
OVCAR-4 = tested on: OVCAR-4
UO-31 = tested on: UO-31
T47D = tested on: T47D
SK-MEL-28 = tested on: SK-MEL-28
SK-MEL-2 = tested on: SK-MEL-2
HCC 2998 = tested on: HCC 2998
SR = tested on: SR
RPMI-8226 = tested on: RPMI-8226
SF-539 = tested on: SF-539
HL-60 = tested on: HL-60
KM12 = tested on: KM12
NCI-H226 = tested on: NCI-H226
MOLT-4 = tested on: MOLT-4
MDA-MB-231 = tested on: MDA-MB-231

## C/C(=N/NC(=S)Nc1ccccc1Cl)c1cccc(/C(C)=N\NC(=S)Nc2ccccc2Cl)n1
Malme-3M
  GI50: 35.8 µM (inactive)
SK-MEL-5
  GI50: 12.4 µM (inactive)
SNB-75
  GI50: > 100 µM (inactive)
ACHN
  GI50: 55.5 µM (inactive)
SF-295
  GI50: > 100 µM (inactive)
NCI/ADR-RES
  GI50: > 100 µM (inactive)
A498
  GI50: > 100 µM (inactive)
SF-268
  GI50: > 100 µM (inactive)
SN12C
  GI50: > 100 µM (inactive)
SNB-19
  GI50: 82.4 µM (inactive)
MDA-N
  GI50: > 100 µM (inactive)
OVCAR-8
  GI50: 11.3 µM (inactive)
OVCAR-5
  GI50: > 100 µM (inactive)
COLO 205
  GI50: 56.8 µM (inactive)
HOP-92
  GI50: > 100 µM (inactive)
Hs-578T
  GI50: > 100 µM (inactive)
SK-OV-3
  GI50: > 100 µM (inactive)
HOP-62
  GI50: > 100 µM (inactive)
UACC-62
  GI50: > 100 µM (inactive)
DU-145
  GI50: > 100 µM (inactive)
SW-620
  GI50: 11.1 µM (inactive)
CAKI-1
  GI50: > 100 µM (inactive)
OVCAR-3
  GI50: 16.3 µM (inactive)
LOX IMVI
  GI50: 61.8 µM (inactive)
EKVX
  GI50: > 100 µM (inactive)
HCT-116
  GI50: 16.1 µM (inactive)
MDA-MB-435
  GI50: > 100 µM (inactive)
M14
  GI50: 22 µM (inactive)
NCI-H23
  GI50: 54.7 µM (inactive)
NCI-H460
  GI50: 5.47 µM (inactive)
RXF 393
  GI50: > 100 µM (inactive)
A549
  GI50: 29.6 µM (inactive)
MCF7
  GI50: 15.1 µM (inactive)
786-0
  GI50: 7.33 µM (inactive)
TK-10
  GI50: 49.1 µM (inactive)
HCT-15
  GI50: 15 µM
HT-29
  GI50: > 100 µM (inactive)
U-251
  GI50: 26.7 µM (inactive)
PC-3
  GI50: 36.1 µM (inactive)
UACC-257
  GI50: 67 µM (inactive)
NCI-H522
  GI50: 46.7 µM (inactive)
CCRF-CEM
  GI50: 9.79 µM (inactive)
IGROV-1
  GI50: 42.2 µM (inactive)
K562
  GI50: 18.7 µM (inactive)
OVCAR-4
  GI50: 28.4 µM (inactive)
UO-31
  GI50: 44 µM (inactive)
T47D
  GI50: > 100 µM (inactive)
SK-MEL-28
  GI50: > 100 µM (inactive)
SK-MEL-2
  GI50: > 100 µM (inactive)
HCC 2998
  GI50: > 100 µM (inactive)
SR
  GI50: 5.66 µM (inactive)
RPMI-8226
  GI50: > 100 µM (inactive)
SF-539
  GI50: 16.6 µM (inactive)
HL-60
  GI50: > 100 µM (inactive)
KM12
  GI50: 7.24 µM (inactive)
NCI-H226
  GI50: > 100 µM (inactive)
MOLT-4
  GI50: 23.6 µM (inactive)
MDA-MB-231
  GI50: 12.2 µM (inactive)

## Nc1c(Br)cc2c(c1Br)Cc1cc(Br)ccc1-2
SK-MEL-5
  GI50: > 100 µM (inactive)
SNB-75
  GI50: > 100 µM (inactive)
ACHN
  GI50: > 100 µM (inactive)
SF-295
  GI50: > 100 µM (inactive)
NCI/ADR-RES
  GI50: > 100 µM (inactive)
A498
  GI50: 0.968 µM (active)
SF-268
  GI50: > 100 µM (inactive)
SN12C
  GI50: > 100 µM (inactive)
SNB-19
  GI50: > 100 µM (inactive)
MDA-N
  GI50: > 100 µM (inactive)
OVCAR-8
  GI50: > 100 µM (inactive)
COLO 205
  GI50: > 100 µM (inactive)
HOP-92
  GI50: > 100 µM (inactive)
Hs-578T
  GI50: > 100 µM (inactive)
SK-OV-3
  GI50: > 100 µM (inactive)
DU-145
  GI50: > 100 µM (inactive)
SW-620
  GI50: > 100 µM (inactive)
OVCAR-3
  GI50: > 100 µM (inactive)
LOX IMVI
  GI50: > 100 µM (inactive)
HCT-116
  GI50: > 100 µM (inactive)
MDA-MB-435
  GI50: > 100 µM (inactive)
M14
  GI50: > 100 µM (inactive)
NCI-H23
  GI50: > 100 µM (inactive)
NCI-H460
  GI50: > 100 µM (inactive)
RXF 393
  GI50: > 100 µM (inactive)
A549
  GI50: > 100 µM (inactive)
MCF7
  GI50: > 100 µM (inactive)
TK-10
  GI50: > 100 µM (inactive)
HCT-15
  GI50: > 100 µM
HT-29
  GI50: > 100 µM (inactive)
U-251
  GI50: > 100 µM (inactive)
PC-3
  GI50: > 100 µM (inactive)
UACC-257
  GI50: > 100 µM (inactive)
NCI-H522
  GI50: > 100 µM (inactive)
CCRF-CEM
  GI50: > 100 µM (inactive)
K562
  GI50: > 100 µM (inactive)
OVCAR-4
  GI50: > 100 µM (inactive)
UO-31
  GI50: > 100 µM (inactive)
T47D
  GI50: > 100 µM (inactive)
SK-MEL-28
  GI50: > 100 µM (inactive)
HCC 2998
  GI50: > 100 µM (inactive)
SR
  GI50: > 100 µM (inactive)
KM12
  GI50: > 100 µM (inactive)
NCI-H226
  GI50: > 100 µM (inactive)
MOLT-4
  GI50: > 100 µM (inactive)
MDA-MB-231
  GI50: > 100 µM (inactive)

## CC(C)N1CN(c2ccccc2)C2(CCN(CCCC(=O)c3ccc(F)cc3)CC2)C1=O
Malme-3M
  GI50: 14.7 µM (inactive)
SK-MEL-5
  GI50: 2.55 µM (inactive)
SNB-75
  GI50: 36.1 µM (inactive)
ACHN
  GI50: 3.9 µM (inactive)
SF-295
  GI50: 10.8 µM (inactive)
NCI/ADR-RES
  GI50: 5.55 µM (inactive)
A498
  GI50: 2.97 µM (inactive)
SF-268
  GI50: 6.7 µM (inactive)
SN12C
  GI50: 4.68 µM (inactive)
SNB-19
  GI50: 12.7 µM (inactive)
MDA-N
  GI50: 14.9 µM (inactive)
OVCAR-8
  GI50: 24 µM (inactive)
OVCAR-5
  GI50: 5.42 µM (inactive)
COLO 205
  GI50: 0.483 µM (active)
HOP-92
  GI50: 3.78 µM (inactive)
Hs-578T
  GI50: 16.1 µM (inactive)
SK-OV-3
  GI50: 42 µM (inactive)
HOP-62
  GI50: 3.7 µM (inactive)
UACC-62
  GI50: 17.9 µM (inactive)
DU-145
  GI50: 3.18 µM (inactive)
SW-620
  GI50: 4.99 µM (inactive)
CAKI-1
  GI50: 4.13 µM (inactive)
OVCAR-3
  GI50: 22 µM (inactive)
LOX IMVI
  GI50: 7.1 µM (inactive)
EKVX
  GI50: 12.7 µM (inactive)
HCT-116
  GI50: 2.04 µM (inactive)
MDA-MB-435
  GI50: 11.1 µM (inactive)
M14
  GI50: 15.3 µM (inactive)
NCI-H23
  GI50: 6.7 µM (inactive)
NCI-H460
  GI50: 21.1 µM (inactive)
RXF 393
  GI50: 28.4 µM (inactive)
A549
  GI50: 4.68 µM (inactive)
MCF7
  GI50: 3.88 µM (inactive)
786-0
  GI50: 6.9 µM (inactive)
TK-10
  GI50: 12.1 µM (inactive)
HCT-15
  GI50: 6.31 µM
HT-29
  GI50: 1.79 µM (inactive)
U-251
  GI50: 26.7 µM (inactive)
PC-3
  GI50: 18.9 µM (inactive)
UACC-257
  GI50: 2.74 µM (inactive)
NCI-H522
  GI50: 21 µM (inactive)
CCRF-CEM
  GI50: 1.83 µM (inactive)
IGROV-1
  GI50: 3.85 µM (inactive)
K562
  GI50: 25.6 µM (inactive)
OVCAR-4
  GI50: 3.26 µM (inactive)
UO-31
  GI50: 19.4 µM (inactive)
T47D
  GI50: 6.07 µM (inactive)
SK-MEL-28
  GI50: 18.3 µM (inactive)
SK-MEL-2
  GI50: 14 µM (inactive)
HCC 2998
  GI50: 7.14 µM (inactive)
SR
  GI50: 18.1 µM (inactive)
RPMI-8226
  GI50: 10.3 µM (inactive)
SF-539
  GI50: 9.55 µM (inactive)
HL-60
  GI50: 19.1 µM (inactive)
KM12
  GI50: 22 µM (inactive)
NCI-H226
  GI50: 6.64 µM (inactive)
MOLT-4
  GI50: 5.92 µM (inactive)
MDA-MB-231
  GI50: 9.14 µM (inactive)
